# Source: patent US20080227655A1, “Assessment of effect of an agent on a human biological condition using rodent gene expression panels” (priority 2006, published 2008)
# “And” between values parts separate entries of the source, which are not always exact repeats. Equal entries are not always repeated.
# System: custom murine 40-gene Precision Profile for Rheumatoid Arthritis, whole blood
# Test: Collagen Induced Arthritis (CIA) model, whole blood gene expression by QPCR, vehicle or dexamethasone treatment
# Format: in vivo, male DBA/1 mice
# Conditions: for Normalized CT (Delta CT) IL1RAP_M / Normalized CT (Delta CT) IL1RN—M / Normalized CT (Delta CT) IL6_M / Normalized CT (Delta CT) JUN_M / Normalized CT (Delta CT) MEF2C—M / Normalized CT (Delta CT) NFKB1—M / Normalized CT (Delta CT) PADI4—M / Normalized CT (Delta CT) PLA2G7—M / Normalized CT (Delta CT) PTPRC_M / Normalized CT (Delta CT) PTX3_M / Normalized CT (Delta CT) SER-PINE1_M / Normalized CT (Delta CT) TGFB1_M / Normalized CT (Delta CT) TIMP1_M / Normalized CT (Delta CT) TLR2_M / Normalized CT (Delta CT) TLR4_M / Normalized CT (Delta CT) TNFSF5—M / Normalized CT (Delta CT) TNF_M / Normalized CT (Delta CT) VEGF_M: whole blood
# Description: Whole blood gene expression changes were evaluated in vehicle control and drug-treated murine subjects across two murine models of arthritis according to the following arthritis models:
# KRN Transgenic Mouse (K/B×N): K/B×N serum from transgenic mouse used to induce arthritis in female BALB/c mice (n=54). Collagen Induced Arthritis (CIA): Bovine type II collagen used to induce arthritis in male DBA/1 mice (n=54).
# In addition, naïve, untreated animal groups at baseline and terminal day were included to control for potential age-related changes in gene expression over the extended study periods. Animal groups, time-points, and treatment schedules are summarized in Tables 20A and 20B, respectively.
# Whole blood samples from animals were collected by retro-orbital bleed at selected time-points in accordance with the arthritis study schemas described in […], and transferred into sample collection tubes containing a 1.5× lysis solution and RPMI. Samples were processed into total RNA and cDNA. […] It was anticipated from these murine models would provide a better understanding of the relevant molecular response of arthritis induction and their potential correlation to the human disease condition.
# Normal murine subject reference values (represented as normalized Ct or ΔCt values) were established for male DBA/1 mice (n=6 for the CIA study arm) and female BALB/c mice (n=6 for the KRN study arm). In both arms of the study, gene expression response of normal (naïve, non-immunized and untreated) murine subjects were evaluated in groups of 6 each at day 0 and day 60 for the CIA study arm, and at day 0 and day 21 for the KRN study arm (see Tables 20A and 20B).
# Gene expression responses for this arthritis-induced murine model were evaluated for untreated mice at day 24 and vehicle-treated mice at days 33, 42, and 60 to characterize disease progression.
# [1] = CIA Day 33 Treated, group Average
# [2] = CIA Day 33 Treated, individual mice
# [3] = CIA Day 42 Treated, group Average
smiles,measurement,setting,value
C[C@@H]1C[C@H]2[C@@H]3CCC4=CC(=O)C=C[C@]4(C)[C@@]3(F)[C@@H](O)C[C@]2(C)[C@@]1(O)C(=O)CO [Dexamethasone],"ABCA1_M Normalized CT Value (Delta CT), Average",[1],17.98
same,"APAF1_M Normalized CT Value (Delta CT), Average",[1],19.03
same,"ARG2_M Normalized CT Value (Delta CT), Average",[1],17.82
same,"CASP1_M Normalized CT Value (Delta CT), Average",[1],18.22
same,"CASP3_M Normalized CT Value (Delta CT), Average",[1],17.75
same,"CCR3_M Normalized CT Value (Delta CT), Average",[1],19.87
same,"CD8A_M Normalized CT Value (Delta CT), Average",[1],18.74
same,"CD14_M Normalized CT Value (Delta CT), Average",[1],17.29
same,"CD32_M Normalized CT Value (Delta CT), Average",[1],18.45
same,"CD86_M Normalized CT Value (Delta CT), Average",[1],22.19
same,"CSPG2_M Normalized CT Value (Delta CT), Average",[1],18.04
same,"F3_M Normalized CT Value (Delta CT), Average",[1],25.08
same,"HMOX1—M Normalized CT Value (Delta CT), Average",[1],17.47
same,"HSPA1A—M Normalized CT Value (Delta CT), Average",[1],19.62
same,"ICAM1—M Normalized CT Value (Delta CT), Average",[1],18.84
same,"IFI16_M Normalized CT Value (Delta CT), Average",[1],18.42
same,"IL1A_M Normalized CT Value (Delta CT), Average",[1],24.44
same,"IL1B_M Normalized CT Value (Delta CT), Average",[1],14.09
same,"IL10_M Normalized CT Value (Delta CT), Average",[1],25.81
same,Normalized CT (Delta CT) IL1RAP_M,[1],17.96
same,Normalized CT (Delta CT) IL1RN—M,[1],17.38
same,Normalized CT (Delta CT) IL6_M,[1],23.95
same,Normalized CT (Delta CT) JUN_M,[1],19.37
same,Normalized CT (Delta CT) MEF2C—M,[1],18.84
same,Normalized CT (Delta CT) NFKB1—M,[1],16.55
same,Normalized CT (Delta CT) PADI4—M,[1],17.87
same,Normalized CT (Delta CT) PLA2G7—M,[1],14.85
same,Normalized CT (Delta CT) PTPRC_M,[1],13.58
same,Normalized CT (Delta CT) PTX3_M,[1],25.65
same,Normalized CT (Delta CT) SER-PINE1_M,[1],20.38
same,Normalized CT (Delta CT) TGFB1_M,[1],14.82
same,Normalized CT (Delta CT) TIMP1_M,[1],25.24
same,Normalized CT (Delta CT) TLR2_M,[1],17.70
same,Normalized CT (Delta CT) TLR4_M,[1],18.20
same,Normalized CT (Delta CT) TNFSF5—M,[1],21.06
same,Normalized CT (Delta CT) TNF_M,[1],19.71
same,Normalized CT (Delta CT) VEGF_M,[1],20.19
same,ABCA1_M Normalized CT Value (Delta CT),[2],17.26 and 18.20 and 17.50 and 17.61 and 19.02 and 18.30
same,APAF1_M Normalized CT Value (Delta CT),[2],18.67 and 19.22 and 18.56 and 19.02 and 19.62 and 19.07
same,ARG2_M Normalized CT Value (Delta CT),[2],17.14 and 18.42 and 17.47 and 17.92 and 17.83 and 18.15
same,CASP1_M Normalized CT Value (Delta CT),[2],17.29 and 18.41 and 17.98 and 18.58 and 18.74 and 18.31
same,CASP3_M Normalized CT Value (Delta CT),[2],16.82 and 17.64 and 17.74 and 18.06 and 18.00 and 18.21
same,CCR3_M Normalized CT Value (Delta CT),[2],18.36 and 19.59 and 19.88 and 20.33 and 20.88 and 20.15
same,CD8A_M Normalized CT Value (Delta CT),[2],17.83 and 18.69 and 18.52 and 18.83 and 19.44 and 19.14
same,CD14_M Normalized CT Value (Delta CT),[2],17.10 and 17.77 and 16.89 and 17.05 and 17.36 and 17.54
same,CD32_M Normalized CT Value (Delta CT),[2],17.52 and 18.69 and 18.07 and 18.17 and 19.57 and 18.71
same,CD86_M Normalized CT Value (Delta CT),[2],21.71 and 22.43 and 21.83 and 21.99 and 22.92 and 22.26
same,CSPG2_M Normalized CT Value (Delta CT),[2],17.33 and 18.26 and 17.36 and 18.91 and 17.94 and 18.42
same,F3_M Normalized CT Value (Delta CT),[2],23.01 and 25.60 and 26.10 and 25.22 and 24.87 and 25.67
same,HMOX1—M Normalized CT Value (Delta CT),[2],16.95 and 17.50 and 17.08 and 17.53 and 17.80 and 17.98
same,HSPA1A—M Normalized CT Value (Delta CT),[2],18.80 and 20.04 and 19.25 and 20.03 and 19.32 and 20.30
same,ICAM1—M Normalized CT Value (Delta CT),[2],18.16 and 19.11 (2×) and 18.33 and 19.33 and 19.01
same,IFI16_M Normalized CT Value (Delta CT),[2],17.31 and 18.37 and 18.29 and 18.56 and 18.70 and 19.31
same,IL1A_M Normalized CT Value (Delta CT),[2],24.58 and 24.31
same,IL1B_M Normalized CT Value (Delta CT),[2],13.46 and 14.53 and 13.95 and 14.00 and 14.32 and 14.27
same,IL10_M Normalized CT Value (Delta CT),[2],25.17 and 25.58 and 26.12 and 26.14 and 25.77 and 26.06
same,Normalized CT (Delta CT) IL1RAP_M,[2],17.64 (2×) and 18.18 and 17.83 and 18.26 and 18.20
same,Normalized CT (Delta CT) IL1RN—M,[2],16.72 and 17.84 and 17.10 and 17.67 and 17.23 and 17.73
same,Normalized CT (Delta CT) IL6_M,[2],23.19 and 24.14 and 23.12 and 24.21 and 24.22 and 24.83
same,Normalized CT (Delta CT) JUN_M,[2],18.61 and 19.69 and 19.28 and 19.18 and 19.87 and 19.60
same,Normalized CT (Delta CT) MEF2C—M,[2],18.46 and 19.03 and 18.51 and 18.82 and 19.65 and 18.56
same,Normalized CT (Delta CT) NFKB1—M,[2],15.81 and 16.66 and 16.35 and 16.51 and 17.38 and 16.63
same,Normalized CT (Delta CT) PADI4—M,[2],17.79 and 18.22 and 17.82 and 17.94 and 17.90 and 17.58
same,Normalized CT (Delta CT) PLA2G7—M,[2],14.49 and 15.12 and 14.67 and 15.01 and 15.09 and 14.74
same,Normalized CT (Delta CT) PTPRC_M,[2],13.01 and 13.82 and 13.27 and 13.81 and 14.11 and 13.46
same,Normalized CT (Delta CT) PTX3_M,[2],25.66 and 25.46 and 25.62 and 25.86 and 26.01 and 25.32
same,Normalized CT (Delta CT) SER-PINE1_M,[2],20.09 and 20.42 and 20.70 and 20.01 and 20.26 and 20.78
same,Normalized CT (Delta CT) TGFB1_M,[2],14.47 and 14.92 and 14.68 and 14.99 and 14.96 and 14.87
same,Normalized CT (Delta CT) TIMP1_M,[2],25.48 and 25.27 and 25.34 and 25.05 and 25.73 and 24.56
same,Normalized CT (Delta CT) TLR2_M,[2],17.23 and 17.92 and 17.46 and 17.97 and 17.84 and 17.81
same,Normalized CT (Delta CT) TLR4_M,[2],17.72 and 18.52 and 18.24 and 18.23 and 18.30 and 18.16
same,Normalized CT (Delta CT) TNFSF5—M,[2],20.24 and 21.35 and 20.73 and 21.36 and 21.76 and 20.95
same,Normalized CT (Delta CT) TNF_M,[2],18.97 and 20.16 and 19.24 and 19.56 and 20.34 and 20.01
same,Normalized CT (Delta CT) VEGF_M,[2],19.55 and 20.59 and 19.74 and 20.04 and 21.29 and 19.96
same,"ABCA1_M Normalized CT Value (Delta CT), Average",[3],19.35
same,"APAF1_M Normalized CT Value (Delta CT), Average",[3],19.60
same,"ARG2_M Normalized CT Value (Delta CT), Average",[3],17.90
same,"CASP1_M Normalized CT Value (Delta CT), Average",[3],18.55
same,"CASP3_M Normalized CT Value (Delta CT), Average",[3],18.07
same,"CCR3_M Normalized CT Value (Delta CT), Average",[3],19.53
same,"CD8A_M Normalized CT Value (Delta CT), Average",[3],19.66
same,"CD14_M Normalized CT Value (Delta CT), Average",[3],17.57
